Assays:
[1] = system: Trichomonas foetus; test: Infection tests with Trichomonas foetus in mice; type: in vivo; details: for % of Animals Dying After Infection (Mean Value): stomach tube, 3 successive days, NMRI mice
[2] = in vivo; details: mouse
[3] = system: Serratia marcescens strain HY/a 21

Compound	% of Animals Dying After Infection (Mean Value) ([1]; 1.56 mg/kg) [%]	% of Animals Dying After Infection (Mean Value) ([1]; 3.12 mg/kg) [%]	% of Animals Dying After Infection (Mean Value) ([1]; 6.25 mg/kg) [%]	% of Animals Dying After Infection (Mean Value) ([1]; 12 mg/kg) [%]	% of Animals Dying After Infection (Mean Value) ([1]; 25 mg/kg) [%]	animals survived / survival rate ([1]; dose of 6.25 mg/kg, mice infected with T. foetus) [%]	activity against T. foetus compared with metronidazol (in words) ([1]; infected mice)	LD50 [2] [mg/kg]	Mutants, Test [3]	Mutation frequency [3]
CCc1ccccc1C(=O)NN=CC=Cc1ccc([N+](=O)[O-])o1 [B, 2-[(o-ethylbenzoylhydrazono)propen-1-yl]-5-nitrofuran]	86	62	46	6	0	54	substantially better activity in mice infected with T. foetus	> 2000	–	–
O=C1CCO1 [β-propiolactone, reference compound]	–	–	–	–	–	–	–	–	6.6 × 10^2 colonies/ml	3.4 × 10^-6
